According to patent publication US7393872B2, “Sodium channel blocker compositions and the use thereof” (Euro-Celtique S.A., priority 1999, dated 2008):

How the values were obtained:
[1] = system: Chung model of neuropathic rats; assay: Tactile allodynia in the Chung model of peripheral neuropathy; type: in vivo, rat; settings: given alone, FIG. 2
Description: Male Sprague-Dawley rats weighing between 200-225 g were anesthetized with halothane (1-3% in a mixture of 70% air and 30% oxygen) and their body temperature controlled during anesthesia through use of a homeothermic blanket. A 2-cm dorsal midline incision was then made at the L5 and L6 level and the para-vertibral muscle groups retracted bilaterally. L5 and L6 spinal nerves were then be exposed, isolated, and tightly ligated with 6-0 silk suture. A sham operation was performed exposing the contralateral L5 and L6 spinal nerves as a negative control.
Tactile Allodynia: Rats were transferred to an elevated testing cage with a wire mesh floor and allowed to acclimate for five to ten minutes. A series of Semmes-Weinstein monofilaments were applied to the plantar surface of the hindpaw to determine the animal's withdrawal threshold. […] This procedure was repeated with subsequent lesser filaments until there was no response and the lightest filament that elicited a response was recorded. […] For each animal, three measurements were made at every time point to produce an average withdrawal threshold determination. Tests were performed prior to and at 1, 2, and 24 hrs post drug administration. Tactile allodynia and mechanical hyperalgesia tests were conducted concurrently.

chronic pain = settings: clinical trials; 15-20% of patients treated with placebo showed effectiveness; cited from earlier work

| Structure (SMILES) | tactile antiallodynia effect (withdrawal threshold) ([1]; 1.25 mg/kg p.o.) | tactile antiallodynia effect (withdrawal threshold) ([1]; 25 mg/kg s.c.) | patient population that showed effectiveness (chronic pain) |
| --- | --- | --- | --- |
| NC(=O)NN=Cc1ccc(Oc2ccc(F)cc2)cc1 [Co 102862, 4-(4′-fluoro-phenoxy)benzaldehyde semicarbazone] | moderate antiallodynia effect |  |  |
| NCC1(CC(=O)O)CCCCC1 [gabapentin, 1-(aminomethyl)cyclohexaneacetic acid] |  | minimum or no effect | less than 50% |
